Experimental data: patent US10336761B2, “TGFβ receptor antagonist” (BRISTOL-MYERS SQUIBB COMPANY, priority 2015, dated 2019)

Molecular target: HIS-TGFβR1 T204D (Homo sapiens (Human), UniProt P36897, T204D)
Test: HTRF probe-displacement assay, HIS-TGFβR1 T204D
Type: binding
Conditions: 1 hour at room temperature

Sequence of HIS-TGFβR1 T204D (P36897 34-503 T204D): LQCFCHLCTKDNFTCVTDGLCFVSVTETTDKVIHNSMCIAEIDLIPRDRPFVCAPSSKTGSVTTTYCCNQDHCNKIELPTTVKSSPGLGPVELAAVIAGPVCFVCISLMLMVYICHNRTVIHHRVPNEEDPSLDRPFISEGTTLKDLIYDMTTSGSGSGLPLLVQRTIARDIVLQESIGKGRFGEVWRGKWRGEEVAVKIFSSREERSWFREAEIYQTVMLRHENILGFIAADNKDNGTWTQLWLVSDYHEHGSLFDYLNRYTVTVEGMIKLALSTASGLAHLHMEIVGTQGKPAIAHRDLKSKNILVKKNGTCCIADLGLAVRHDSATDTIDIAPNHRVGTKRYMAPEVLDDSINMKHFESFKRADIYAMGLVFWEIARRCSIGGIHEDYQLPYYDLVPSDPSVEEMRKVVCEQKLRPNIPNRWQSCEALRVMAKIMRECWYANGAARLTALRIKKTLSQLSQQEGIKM

Row | SMILES | IC50 [nM]
1 | CCOC(=O)CNC(=O)c1cnccc1Nc1nc(-c2cccc(C(F)F)n2)nn2cccc12 [Example 190, Ethyl 2-{[4-({2-[6-(difluoromethyl)pyridin-2-yl]pyrrolo[2,1-f][1,2,4]triazin-4-yl}amino)pyridin-3-yl]formamido}acetate] | 22
2 | Fc1cnccc1Nc1nc(-c2ccccn2)nn2ccc(CNC34CC5CC(CC(C5)C3)C4)c12 [Example 282, N-(5-{[(adamantan-1-yl)amino]methyl}-2-(pyridin-2-yl)pyrrolo[2,1-f][1,2,4]triazin-4-yl)-3-fluoropyridin-4-amine] | 15
3 | O=C(c1cnccc1Nc1nc(-c2cccc(C(F)F)n2)nn2cccc12)N1CCCC1 [Example 186, N-{2-[6-(difluoromethyl)pyridin-2-yl]pyrrolo[2,1-f][1,2,4]triazin-4-yl}-3-(pyrrolidine-1-carbonyl)pyridin-4-amine] | 32
4 | COc1cccc(-c2nc(Nc3ccncc3F)c3cc(CCCCN4CCN(C)CC4)cn3n2)n1 [Example 43, 3-fluoro-N-[2-(6-methoxypyridin-2-yl)-6-[4-(4-methylpiperazin-1-yl)butyl]pyrrolo[2,1-f][1,2,4]triazin-4-yl]pyridin-4-amine] | 2200
5 | COc1cccc(-c2nc(Nc3ccncc3F)c3cc(NC(=O)CNC(=O)OC(C)(C)C)cn3n2)n1 [Example 108, tert-butyl N-[({4-[(3-fluoropyridin-4-yl)amino]-2-(6-methoxypyridin-2-yl)pyrrolo[2,1-f][1,2,4]triazin-6-yl}carbamoyl)methyl]carbamate] | 330
6 | CN1CCN(CCCNCc2ccn3nc(-c4ccccn4)nc(Nc4ccncc4F)c23)CC1 [Example 283, 3-fluoro-N-[5-({[3-(4-methylpiperazin-1-yl)propyl]amino}methyl)-2-(pyridin-2-yl)pyrrolo[2,1-f][1,2,4]triazin-4-yl]pyridin-4-amine] | 12
7 | CCOC(=O)CCNC(=O)c1cnccc1Nc1nc(-c2cccc(C(F)F)n2)nn2cccc12 [Example 204, Ethyl 3-{[4-({2-[6-(difluoromethyl)pyridin-2-yl]pyrrolo[2,1-f][1,2,4]triazin-4-yl}amino)pyridin-3-yl]formamido}propanoate] | 53
8 | Fc1cnccc1Nc1nc(-c2ccccn2)nn2ccc(CNC3CCNCC3)c12 [Example 307, 3-fluoro-N-(5-{[(piperidin-4-yl)amino]methyl}-2-(pyridin-2-yl)pyrrolo[2,1-f][1,2,4]triazin-4-yl)pyridin-4-amine] | 9.1
9 | COc1cccc(-c2nc(Nc3ccncc3F)c3cc(NS(=O)(=O)C4CC4)cn3n2)n1 [Example 107, N-{4-[(3-fluoropyridin-4-yl)amino]-2-(6-methoxypyridin-2-yl)pyrrolo[2,1-f][1,2,4]triazin-6-yl}cyclopropanesulfonamide] | 81
10 | COC(=O)Nc1cc2c(Nc3ccncc3F)nc(-c3cccc(OC)n3)nn2c1 [Example 73, Methyl N-{4-[(3-fluoropyridin-4-yl)amino]-2-(6-methoxypyridin-2-yl)pyrrolo[2,1-f][1,2,4]triazin-6-yl}carbamate] | 74
11 | Fc1cnccc1Nc1nc(-c2ccccn2)nn2ccc(CNc3cc(-c4ccccc4)[nH]n3)c12 [Example 298, 3-fluoro-N-(5-{[(5-phenyl-1H-pyrazol-3-yl)amino]methyl}-2-(pyridin-2-yl)pyrrolo[2,1-f][1,2,4]triazin-4-yl)pyridin-4-amine] | 27
12 | COc1cccc(-c2nc(Nc3ccncc3F)c3c(CNCC(C)(C)O)ccn3n2)n1 [Example 118, 1-[({4-[(3-fluoropyridin-4-yl)amino]-2-(6-methoxypyridin-2-yl)pyrrolo[2,1-f][1,2,4]triazin-5-yl}methyl)amino]-2-methylpropan-2-ol] | 9.7
13 | CC(C)NC(=O)c1cnccc1Nc1nc(-c2cccc(C(F)F)n2)nn2cccc12 [Example 194, 4-({2-[6-(difluoromethyl)pyridin-2-yl]pyrrolo[2,1-f][1,2,4]triazin-4-yl}amino)-N-(propan-2-yl)pyridine-3-carboxamide] | 110
14 | COc1cccc(-c2nc(Nc3ccncc3F)c3c(CCN4CCN(C)CC4)ccn3n2)n1 [Example 112, 3-fluoro-N-[2-(6-methoxypyridin-2-yl)-5-[2-(4-methylpiperazin-1-yl)ethyl]pyrrolo[2,1-f][1,2,4]triazin-4-yl]pyridin-4-amine] | 360
15 | Cc1cccc(-c2nc(Nc3ccncc3C(=O)NCC3(O)CCN(C)CC3)c3cccn3n2)n1 [Example 154, N-[(4-hydroxy-1-methylpiperidin-4-yl)methyl]-4-{[2-(6-methylpyridin-2-yl)pyrrolo[2,1-f][1,2,4]triazin-4-yl]amino}pyridine-3-carboxamide] | 33
16 | O=C(NCCCN1CCCC1=O)c1cnccc1Nc1nc(-c2ccccn2)nn2cccc12 [Example 149, N-[3-(2-oxopyrrolidin-1-yl)propyl]-4-{[2-(pyridin-2-yl)pyrrolo[2,1-f][1,2,4]triazin-4-yl]amino}pyridine-3-carboxamide] | 49
17 | COc1cccc(-c2nc(NCc3ccncc3)c3cccn3n2)n1 [Example 31, 2-(6-methoxypyridin-2-yl)-N-(pyridin-4-ylmethyl)pyrrolo[2,1-f][1,2,4]triazin-4-amine] | 810

Stronger by IC50, values ahead:

Row | IC50 [nM] | SMILES
18 | 0.46 | Fc1cnccc1Nc1nc(-c2ccc(F)c(C(F)F)n2)nn2cccc12 [Example 66, N-{2-[6-(difluoromethyl)-5-fluoropyridin-2-yl]pyrrolo[2,1-f][1,2,4]triazin-4-yl}-3-fluoropyridin-4-amine]
19 | 1.7 | OCC(CO)NCc1ccn2nc(-c3ccccn3)nc(Nc3ccncc3F)c12 [Example 264, 2-[({4-[(3-fluoropyridin-4-yl)amino]-2-(pyridin-2-yl)pyrrolo[2,1-f][1,2,4]triazin-5-yl}methyl)amino]propane-1,3-diol]
20 | 2.9 | Fc1cnccc1Nc1nc(-c2ccccn2)nn2ccc(CNCC3CCNCC3)c12 [Example 238, 3-fluoro-N-(5-{[(piperidin-4-ylmethyl)amino]methyl}-2-(pyridin-2-yl)pyrrolo[2,1-f][1,2,4]triazin-4-yl)pyridin-4-amine]
21 | 1.6 | CC(C)(O)CNCc1ccn2nc(-c3ccccn3)nc(Nc3ccncc3F)c12 [Example 125, 1-[({4-[(3-fluoropyridin-4-yl)amino]-2-(pyridin-2-yl)pyrrolo[2,1-f][1,2,4]triazin-5-yl}methyl)amino]-2-methylpropan-2-ol]
22 | 0.47 | Oc1cccc(N2CCN(Cc3ccn4nc(-c5ccccn5)nc(Nc5ccncc5F)c34)CC2)c1 [Example 275, 3-[4-({4-[(3-fluoropyridin-4-yl)amino]-2-(pyridin-2-yl)pyrrolo[2,1-f][1,2,4]triazin-5-yl}methyl)piperazin-1-yl]phenol]
23 | 0.59 | Fc1ccc(-c2nc(Nc3ccncc3Cl)c3cccn3n2)nc1 [Example 4, 3-chloro-N-[2-(5-fluoropyridin-2-yl)pyrrolo[2,1-f][1,2,4]triazin-4-yl]pyridin-4-amine]
24 | 0.4 | CC(=O)Nc1cc(Nc2nc(-c3ccccn3)nn3ccc(CN4CCC(F)(F)CC4)c23)ccn1 [Example 24, N-[4-({5-[(4,4-difluoropiperidin-1-yl)methyl]-2-(pyridin-2-yl)pyrrolo[2,1-f][1,2,4]triazin-4-yl}amino)pyridin-2-yl]acetamide]
25 | 2.2 | Cc1cccc(-c2nc(Nc3ccncn3)c3cccn3n2)n1 [Example 64, N-[2-(6-methylpyridin-2-yl)pyrrolo[2,1-f][1,2,4]triazin-4-yl]pyrimidin-4-amine]
26 | 4 | O[C@@H](CNCc1ccn2nc(-c3ccccn3)nc(Nc3ccncc3F)c12)c1ccccc1 [Example 310, (1R)-2-[({4-[(3-fluoropyridin-4-yl)amino]-2-(pyridin-2-yl)pyrrolo[2,1-f][1,2,4]triazin-5-yl}methyl)amino]-1-phenylethan-1-ol]
27 | 0.85 | CC(=O)Nc1cc(Nc2nc(-c3ccccn3)nn3ccc(CNCC(C)(C)O)c23)ccn1 [Example 117, N-{4-[(5-{[(2-hydroxy-2-methylpropyl)amino]methyl}-2-(pyridin-2-yl)pyrrolo[2,1-f][1,2,4]triazin-4-yl)amino]pyridin-2-yl}acetamide]
28 | 2.9 | NCCCNCc1ccn2nc(-c3ccccn3)nc(Nc3ccncc3F)c12 [Example 286, N-(5-{[(3-aminopropyl)amino]methyl}-2-(pyridin-2-yl)pyrrolo[2,1-f][1,2,4]triazin-4-yl)-3-fluoropyridin-4-amine]
29 | 1.2 | CC(O)CNCc1ccn2nc(-c3ccccn3)nc(Nc3ccncc3F)c12 (stereo not shown) [Example 239, 1-[({4-[(3-fluoropyridin-4-yl)amino]-2-(pyridin-2-yl)pyrrolo[2,1-f][1,2,4]triazin-5-yl}methyl)amino]propan-2-ol]
30 | 3.6 | CC(=O)Nc1cc(Nc2nc(-c3ccc(F)cn3)nn3cccc23)ccn1 [Example 227, N-(4-{[2-(5-fluoropyridin-2-yl)pyrrolo[2,1-f][1,2,4]triazin-4-yl]amino}pyridin-2-yl)acetamide]
31 | 4.2 | Fc1cnccc1Nc1nc(-c2ccccn2)nn2ccc(CNCCN3CCNCC3)c12 [Example 269, 3-fluoro-N-[5-({[2-(piperazin-1-yl)ethyl]amino}methyl)-2-(pyridin-2-yl)pyrrolo[2,1-f][1,2,4]triazin-4-yl]pyridin-4-amine]
32 | 3.9 | O=C(NCCO)c1cnccc1Nc1nc(-c2cccc(C(F)F)n2)nn2cccc12 [Example 192, 4-({2-[6-(difluoromethyl)pyridin-2-yl]pyrrolo[2,1-f][1,2,4]triazin-4-yl}amino)-N-(2-hydroxyethyl)pyridine-3-carboxamide]
33 | 2.3 | OCCN1CCN(Cc2ccn3nc(-c4ccccn4)nc(Nc4ccncc4F)c23)CC1 [Example 231, 2-[4-({4-[(3-fluoropyridin-4-yl)amino]-2-(pyridin-2-yl)pyrrolo[2,1-f][1,2,4]triazin-5-yl}methyl)piperazin-1-yl]ethan-1-ol]
34 | 7.7 | Cc1cccc(-c2nc(Nc3ccncc3)c3cc(C(=O)Nc4ccccc4)cn3n2)n1 [Example 217, 2-(6-methylpyridin-2-yl)-N-phenyl-4-[(pyridin-4-yl)amino]pyrrolo[2,1-f][1,2,4]triazine-6-carboxamide]
